# Marks after values point to notes of the source that are not given here.
# Experiments:
# [1] = system: E. coli ATCC 25922; conditions: reference 26, cited from earlier work
# [2] = system: P. pseudomallei; conditions: reference 208, cited from earlier work
# [3] = system: S. aureus NCTC 8325-4; conditions: reference 215, cited from earlier work
# [4] = system: endodontic lesions; experiment: Intracanal medication of patients with large endodontic lesions, healing evaluated by CBCT and radiograph; assay type: in vivo; conditions: 12 months post obturation
compound,measurement,setting,value
CC1(C)S[C@@H]2[C@H](NC(=O)[C@H](N)c3ccccc3)C(=O)N2[C@H]1C(=O)O [Ampicillin],Concentration effective against biofilm phenotype,"[1]; biofilm, minimal biofilm eradication concentration",512^b μg/ml
same,MIC of planktonic phenotype,[1]; planktonic E. coli ATCC 25922,2 (MIC) μg/ml
CC(C)(O/N=C(\C(=O)N[C@@H]1C(=O)N2C(C(=O)[O-])=C(C[n+]3ccccc3)CS[C@H]12)c1csc(N)n1)C(=O)O [Ceftazidime],Concentration effective against biofilm phenotype,"[2]; biofilm, concentration required for ~99% reduction",800^c μg/ml
same,MBC of planktonic phenotype,[2]; planktonic P. pseudomallei,8 (MBC) μg/ml
CN[C@H](CC(C)C)C(=O)N[C@H]1C(=O)N[C@@H](CC(N)=O)C(=O)N[C@H]2C(=O)N[C@H]3C(=O)N[C@H](C(=O)N[C@H](C(=O)O)c4cc(O)cc(O)c4-c4cc3ccc4O)[C@H](O)c3ccc(c(Cl)c3)Oc3cc2cc(c3O[C@@H]2O[C@H](CO)[C@@H](O)[C@H](O)[C@H]2O[C@H]2C[C@](C)(N)[C@H](O)[C@H](C)O2)Oc2ccc(cc2Cl)[C@H]1O [Vancomycin],Concentration effective against biofilm phenotype,"[3]; biofilm, concentration required for 99% reduction",20^a μg/ml
same,MBC of planktonic phenotype,[3]; planktonic S. aureus NCTC 8325-4,2 (MBC) μg/ml
[Ca+2].[OH-].[OH-] [calcium hydroxide],"change in size of lesion, Example Case No. 3",[4]; tooth 10,no change in the size of lesion
same,"lesion healing, Example Case No. 3 side-by-side comparison","[4]; four weeks of intra-canal medication, teeth 7 and 8 formula, tooth 10 calcium hydroxide",non-healing of the smaller lesion

# Reference: US20250057814A1, “ENDODONTIC BIOFILM-ERADICATION TECHNIQUE UTILIZING A DUAL-SYSTEM INTRACANAL MEDICATION” (priority 2023, published 2025)
